From patent publication EP2185126B1, “USE OF TROXERUTIN TO QUENCH THE FLUORESCENCE OF DISODIUM PHENYL DIBENZIMIDAZOLE TETRASULFONATE” (Symrise AG, priority 2007, dated 2007)

Legend:
[1] = Colour and colour stability of emulsion on storage; assay type: physicochemical; conditions: emulsion prepared with the substance
[2] = Solubility in water; assay type: physicochemical

| solubility in water [2] | Compound | colour / colour stability of emulsion [1] |
| --- | --- | --- |
| poorly soluble in water | C[C@@H]1O[C@@H](O[C@H]2[C@H](Oc3cc(O)c4c(c3)O[C@H](c3ccc(O)cc3)CC4=O)O[C@H](CO)[C@@H](O)[C@@H]2O)[C@H](O)[C@H](O)[C@H]1O [naringin] | less susceptible to colouration problems than other flavone derivatives |
| – | O=c1c(O)c(-c2ccc(O)c(O)c2)oc2cc(O)cc(O)c12 [quercetin] | deeply yellow in colour |
| – | C[C@@H]1O[C@@H](OC[C@H]2O[C@@H](Oc3c(-c4ccc(O)c(O)c4)oc4cc(O)cc(O)c4c3=O)[C@H](O)[C@@H](O)[C@@H]2O)[C@H](O)[C@H](O)[C@H]1O [rutin] | beige in colour and on storage turns dark brown |
| ease of solubility in water | C[C@@H]1O[C@@H](OC[C@H]2O[C@@H](Oc3c(-c4ccc(OCCO)c(OCCO)c4)oc4cc(OCCO)cc(O)c4c3=O)[C@H](O)[C@@H](O)[C@@H]2O)[C@H](O)[C@H](O)[C@H]1O [troxerutin, 7,3',4'-tris[O-(2-hydroxyethyl)]rutin] | long term colour stability |

| Compound | solubility in water [2] | colour / colour stability of emulsion [1] |
| --- | --- | --- |
| COc1ccc([C@@H]2CC(=O)c3c(O)cc(O[C@@H]4O[C@H](CO[C@@H]5O[C@@H](C)[C@H](O)[C@@H](O)[C@H]5O)[C@@H](O)[C@H](O)[C@H]4O)cc3O2)cc1O [hesperidin] | poorly soluble in water | less susceptible to colouration problems than other flavone derivatives |
